Results reported in patent publication US11965039B2, “Compstatin analogues and their medical uses” (priority 2018, dated 2024).
Positions of bridges follow the written chain, without caps; N, C: chain ends. Non-standard residues stand in square brackets, D forms with d. Residues, ends and D or L forms follow the SMILES beside them. Trp(1-Me) = Cn1cc(C[C@H](N)C(=O)O)c2ccccc21; 1Nal = N[C@@H](Cc1cccc2ccccc12)C(=O)O; 2Nal = N[C@@H](Cc1ccc2ccccc2c1)C(=O)O; Sar = CNCC(=O)O

How the values were obtained:
[1] = test system: classical complement pathway; test: In vitro haemolysis assay (inhibition of classical complement pathway); assay type: cell-based, human; settings: human serum, sensitized sheep red blood cells; Table 3, given as upper bounds; read-out: IC50, inhibition of hemolysis
Method in brief: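 Compound dilutions preincubated 15 min at room temperature with diluted human serum (titrated per batch for 70-90% maximal haemolysis), then antibody-sensitized sheep RBC (10^7/well) added for 30 min at 37 °C in Tris/casein buffer, pH 7.4. Stopped with EDTA; haemolysis read at 405 nm; IC50 by 4PL fit.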

[2] = Solubility test at 10 mg/mL (visual inspection and light scattering); assay type: physicochemical; settings: for Solubility, Condition 1: Acetate pH 4; for Solubility, Condition 2: Acetate pH 5; for Solubility, Condition 3: Phosphate pH 6; for Solubility, Condition 4: Phosphate pH 7; for Solubility, Condition 5: Phosphate pH 7.5

| SMILES | IC50 [1] | Solubility, Condition 1 [2] | Solubility, Condition 2 [2] | Solubility, Condition 3 [2] | Solubility, Condition 4 [2] | Solubility, Condition 5 [2] |
| --- | --- | --- | --- | --- | --- | --- |
| CC[C@H](C)[C@H](NC(C)=O)C(=O)N[C@H]1CSSC[C@@H](C(=O)N[C@H](C(=O)NCC(=O)N[C@@H](C)C(=O)N[C@@H](CCC(=O)O)C(=O)N[C@@H](CO)C(N)=O)[C@@H](C)O)NC(=O)[C@H](CCCNC(=N)N)NC(=O)[C@H](Cc2c[nH]cn2)NC(=O)[C@H](CCC(=O)O)NC(=O)CNC(=O)[C@H](Cc2c[nH]c3ccccc23)NC(=O)[C@H](CC(=O)O)NC(=O)[C@H](CCC(N)=O)NC(=O)[C@H](Cc2ccc3ccccc3c2)NC(=O)[C@H]([C@@H](C)CC)NC1=O [Compound 52] (Ac-ICI[2Nal]QDWGEHRCTGAES-NH2; disulfide 2-12) | < 0.1 µM | − (“−” denotes lack of solubility at the given condition, as UV absorbance at 340 nm exceeds 0.1 AU and/or it is visibly turbid or contains particles) | − (“−” denotes lack of solubility at the given condition, as UV absorbance at 340 nm exceeds 0.1 AU and/or it is visibly turbid or contains particles) | + (“+” denotes solubility at the given condition, as determined by UV absorbance being less than 0.1 AU at 340 nm and the sample being clear when manually inspected) | + (“+” denotes solubility at the given condition, as determined by UV absorbance being less than 0.1 AU at 340 nm and the sample being clear when manually inspected) | + (“+” denotes solubility at the given condition, as determined by UV absorbance being less than 0.1 AU at 340 nm and the sample being clear when manually inspected) |
| CC[C@H](C)[C@@H]1NC(=O)[C@@H](NC(=O)[C@H](Cc2ccccc2)NC(=O)[C@H](C)NC(=O)[C@H](CO)NC(=O)CNC(=O)[C@H](CCC(=O)O)NC(C)=O)CSSC[C@@H](C(=O)N(C)CC(=O)N[C@@H](CCC(=O)O)C(N)=O)NC(=O)[C@H](CCCNC(=N)N)NC(=O)[C@H](Cc2c[nH]cn2)NC(=O)[C@H](CCC(=O)O)NC(=O)CNC(=O)[C@H](Cc2c[nH]c3ccccc23)NC(=O)[C@H](CC(=O)O)NC(=O)[C@H](CCC(N)=O)NC(=O)[C@H](Cc2cn(C)c3ccccc23)NC1=O [Compound 53] (Ac-EGSAFCI[Trp(1-Me)]QDWGEHRC[Sar]E-NH2; disulfide 6-16) | < 0.1 µM | − (“−” denotes lack of solubility at the given condition, as UV absorbance at 340 nm exceeds 0.1 AU and/or it is visibly turbid or contains particles) | − (“−” denotes lack of solubility at the given condition, as UV absorbance at 340 nm exceeds 0.1 AU and/or it is visibly turbid or contains particles) | + (“+” denotes solubility at the given condition, as determined by UV absorbance being less than 0.1 AU at 340 nm and the sample being clear when manually inspected) | + (“+” denotes solubility at the given condition, as determined by UV absorbance being less than 0.1 AU at 340 nm and the sample being clear when manually inspected) | + (“+” denotes solubility at the given condition, as determined by UV absorbance being less than 0.1 AU at 340 nm and the sample being clear when manually inspected) |
| CC[C@H](C)[C@H](NC(=O)[C@H](C)NC(=O)[C@H](CO)NC(=O)CNC(=O)[C@H](CCC(=O)O)NC(C)=O)C(=O)N[C@H]1CSSC[C@@H](C(=O)N[C@H](C(=O)N[C@@H](CCC(=O)O)C(N)=O)[C@@H](C)O)NC(=O)[C@H](CCCNC(=N)N)NC(=O)[C@H](Cc2c[nH]cn2)NC(=O)[C@H](CCC(=O)O)NC(=O)CNC(=O)[C@H](Cc2c[nH]c3ccccc23)NC(=O)[C@H](CC(=O)O)NC(=O)[C@H](CCC(N)=O)NC(=O)[C@H](Cc2c[nH]c3ccccc23)NC(=O)[C@H]([C@@H](C)CC)NC1=O [Compound 55] (Ac-EGSAICIWQDWGEHRCTE-NH2; disulfide 6-16) | < 0.25 µM | − (“−” denotes lack of solubility at the given condition, as UV absorbance at 340 nm exceeds 0.1 AU and/or it is visibly turbid or contains particles) | − (“−” denotes lack of solubility at the given condition, as UV absorbance at 340 nm exceeds 0.1 AU and/or it is visibly turbid or contains particles) | + (“+” denotes solubility at the given condition, as determined by UV absorbance being less than 0.1 AU at 340 nm and the sample being clear when manually inspected) | + (“+” denotes solubility at the given condition, as determined by UV absorbance being less than 0.1 AU at 340 nm and the sample being clear when manually inspected) | + (“+” denotes solubility at the given condition, as determined by UV absorbance being less than 0.1 AU at 340 nm and the sample being clear when manually inspected) |
| CC[C@H](C)[C@@H]1NC(=O)[C@@H](NC(=O)[C@H](Cc2ccccc2)NC(=O)[C@H](C)NC(=O)[C@H](CO)NC(=O)CNC(=O)[C@H](CCC(=O)O)NC(C)=O)CSSC[C@@H](C(=O)N[C@H](C(=O)N[C@@H](CCC(=O)O)C(N)=O)[C@@H](C)O)NC(=O)[C@H](CCCNC(=N)N)NC(=O)[C@H](Cc2c[nH]cn2)NC(=O)[C@H](CCC(=O)O)NC(=O)CNC(=O)[C@H](Cc2c[nH]c3ccccc23)NC(=O)[C@H](CC(=O)O)NC(=O)[C@H](CCC(N)=O)NC(=O)[C@H](Cc2cccc3ccccc23)NC1=O [Compound 56] (Ac-EGSAFCI[1Nal]QDWGEHRCTE-NH2; disulfide 6-16) | < 0.1 µM | − (“−” denotes lack of solubility at the given condition, as UV absorbance at 340 nm exceeds 0.1 AU and/or it is visibly turbid or contains particles) | − (“−” denotes lack of solubility at the given condition, as UV absorbance at 340 nm exceeds 0.1 AU and/or it is visibly turbid or contains particles) | + (“+” denotes solubility at the given condition, as determined by UV absorbance being less than 0.1 AU at 340 nm and the sample being clear when manually inspected) | + (“+” denotes solubility at the given condition, as determined by UV absorbance being less than 0.1 AU at 340 nm and the sample being clear when manually inspected) | + (“+” denotes solubility at the given condition, as determined by UV absorbance being less than 0.1 AU at 340 nm and the sample being clear when manually inspected) |
| CC[C@H](C)[C@@H]1NC(=O)[C@@H](NC(=O)[C@H](Cc2ccccc2)NC(=O)[C@H](C)NC(=O)[C@H](CO)NC(=O)CNC(=O)[C@H](CCC(=O)O)NC(C)=O)CSSC[C@@H](C(=O)N[C@H](C(=O)N[C@@H](CCC(=O)O)C(N)=O)[C@@H](C)O)NC(=O)[C@H](CCCNC(=N)N)NC(=O)[C@H](Cc2c[nH]cn2)NC(=O)[C@H](CCC(=O)O)NC(=O)CNC(=O)[C@H](Cc2c[nH]c3ccccc23)NC(=O)[C@H](CC(=O)O)NC(=O)[C@H](CCC(N)=O)NC(=O)[C@H](Cc2cn(C)c3ccccc23)NC1=O [Compound 57] (Ac-EGSAFCI[Trp(1-Me)]QDWGEHRCTE-NH2; disulfide 6-16) | < 0.1 µM | − (“−” denotes lack of solubility at the given condition, as UV absorbance at 340 nm exceeds 0.1 AU and/or it is visibly turbid or contains particles) | − (“−” denotes lack of solubility at the given condition, as UV absorbance at 340 nm exceeds 0.1 AU and/or it is visibly turbid or contains particles) | + (“+” denotes solubility at the given condition, as determined by UV absorbance being less than 0.1 AU at 340 nm and the sample being clear when manually inspected) | + (“+” denotes solubility at the given condition, as determined by UV absorbance being less than 0.1 AU at 340 nm and the sample being clear when manually inspected) | + (“+” denotes solubility at the given condition, as determined by UV absorbance being less than 0.1 AU at 340 nm and the sample being clear when manually inspected) |
| CC[C@H](C)[C@@H]1NC(=O)[C@@H](NC(=O)[C@H](Cc2ccccc2)NC(=O)[C@H](C)NC(=O)[C@H](CO)NC(=O)CNC(=O)[C@H](CCC(=O)O)NC(C)=O)CSSC[C@@H](C(=O)N[C@H](C(=O)N[C@@H](CCC(=O)O)C(N)=O)[C@@H](C)O)NC(=O)[C@H](CCCNC(=N)N)NC(=O)[C@H](Cc2c[nH]cn2)NC(=O)[C@H](CCC(=O)O)NC(=O)CNC(=O)[C@H](Cc2c[nH]c3ccccc23)NC(=O)[C@H](CC(=O)O)NC(=O)[C@H](CCC(N)=O)NC(=O)[C@H](Cc2ccc3ccccc3c2)NC1=O [Compound 60] (Ac-EGSAFCI[2Nal]QDWGEHRCTE-NH2; disulfide 6-16) | < 0.1 µM | − (“−” denotes lack of solubility at the given condition, as UV absorbance at 340 nm exceeds 0.1 AU and/or it is visibly turbid or contains particles) | − (“−” denotes lack of solubility at the given condition, as UV absorbance at 340 nm exceeds 0.1 AU and/or it is visibly turbid or contains particles) | + (“+” denotes solubility at the given condition, as determined by UV absorbance being less than 0.1 AU at 340 nm and the sample being clear when manually inspected) | + (“+” denotes solubility at the given condition, as determined by UV absorbance being less than 0.1 AU at 340 nm and the sample being clear when manually inspected) | + (“+” denotes solubility at the given condition, as determined by UV absorbance being less than 0.1 AU at 340 nm and the sample being clear when manually inspected) |
